Test results reported in PubChem BioAssay (NCI).
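Abbreviation: GI50, concentration required for 50% inhibition of growth. TGI denotes the concentration required for complete inhibition of growth.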

What was measured:
Assay in all cases: NCI anticancer screen, dose series, 384-well format
SK-MEL-5 melanoma = tested on: SK-MEL-5 melanoma
RPMI-8226 leukemia = tested on: RPMI-8226 leukemia
HCC-2998 colon = tested on: HCC-2998 colon
RXF 393 renal = tested on: RXF 393 renal
U251 glioblastoma = tested on: U251 glioblastoma
KM12 colon = tested on: KM12 colon
SK-OV-3 ovarian = tested on: SK-OV-3 ovarian
NCI-H460 NSCLC = tested on: NCI-H460 NSCLC
A549 NSCLC = tested on: A549 NSCLC
SNB-19 CNS = tested on: SNB-19 CNS
NCI-H322M lung = tested on: NCI-H322M lung
UACC-257 melanoma = tested on: UACC-257 melanoma
HCT-15 colon = tested on: HCT-15 colon
DU-145 prostate = tested on: DU-145 prostate
BT-549 breast = tested on: BT-549 breast
SF-268 CNS = tested on: SF-268 CNS
OVCAR-3 ovarian = tested on: OVCAR-3 ovarian
MDA-MB-231 breast = tested on: MDA-MB-231 breast
T-47D breast = tested on: T-47D breast
CCRF-CEM leukemia = tested on: CCRF-CEM leukemia
HCT-116 colon = tested on: HCT-116 colon
HS 578T breast = tested on: HS 578T breast
M14 melanoma = tested on: M14 melanoma
SNB-75 CNS = tested on: SNB-75 CNS
MOLT-4 leukemia = tested on: MOLT-4 leukemia
HT29 colon = tested on: HT29 colon
OVCAR-8 ovarian = tested on: OVCAR-8 ovarian
UO-31 renal = tested on: UO-31 renal
HL-60(TB) leukemia = tested on: HL-60(TB) leukemia
SW-620 colon = tested on: SW-620 colon
CAKI-1 renal = tested on: CAKI-1 renal
OVCAR-4 ovarian = tested on: OVCAR-4 ovarian
SK-MEL-28 melanoma = tested on: SK-MEL-28 melanoma
NCI-H23 lung = tested on: NCI-H23 lung
PC-3 prostate = tested on: PC-3 prostate
EKVX NSCLC = tested on: EKVX NSCLC
NCI-H522 lung = tested on: NCI-H522 lung
MDA-MB-435 melanoma = tested on: MDA-MB-435 melanoma
SF-539 CNS = tested on: SF-539 CNS
A498 renal = tested on: A498 renal
MDA-MB-468 breast = tested on: MDA-MB-468 breast
MCF7 breast = tested on: MCF7 breast
HOP-92 NSCLC = tested on: HOP-92 NSCLC
COLO 205 colon = tested on: COLO 205 colon
NCI/ADR-RES ovarian = tested on: NCI/ADR-RES ovarian
NCI-H226 lung = tested on: NCI-H226 lung
TK-10 renal = tested on: TK-10 renal
K-562 leukemia = tested on: K-562 leukemia
HOP-62 NSCLC = tested on: HOP-62 NSCLC
ACHN renal = tested on: ACHN renal
IGROV1 ovarian = tested on: IGROV1 ovarian
SR leukemia = tested on: SR leukemia
LOX IMVI melanoma = tested on: LOX IMVI melanoma
786-0 renal = tested on: 786-0 renal
MALME-3M melanoma = tested on: MALME-3M melanoma
SN12C renal = tested on: SN12C renal
OVCAR-5 ovarian = tested on: OVCAR-5 ovarian
SF-295 CNS = tested on: SF-295 CNS

Compound: COC[C@H]1OC(=O)c2coc3c2[C@@]1(C)C1=C(C3=O)[C@@H]2CCC(=O)[C@@]2(C)C[C@H]1OC(C)=O
- GI50 (SK-MEL-5 melanoma): 4.21 µM
- TGI (SK-MEL-5 melanoma): 27.9 µM
- GI50 (RPMI-8226 leukemia): 2.39 µM
- TGI (RPMI-8226 leukemia): 9.89 µM
- GI50 (HCC-2998 colon): 3.91 µM
- TGI (HCC-2998 colon): 44.6 µM
- GI50 (RXF 393 renal): 0.281 µM
- TGI (RXF 393 renal): 1.82 µM
- GI50 (U251 glioblastoma): 67.4 µM
- TGI (U251 glioblastoma): > 100 µM
- GI50 (KM12 colon): 15.4 µM
- TGI (KM12 colon): > 100 µM
- GI50 (SK-OV-3 ovarian): 8.24 µM
- TGI (SK-OV-3 ovarian): > 100 µM
- GI50 (NCI-H460 NSCLC): 7.17 µM
- TGI (NCI-H460 NSCLC): > 100 µM
- GI50 (A549 NSCLC): 7.24 µM
- TGI (A549 NSCLC): > 100 µM
- GI50 (SNB-19 CNS): 50.2 µM
- TGI (SNB-19 CNS): > 100 µM
- GI50 (NCI-H322M lung): 6.91 µM
- TGI (NCI-H322M lung): > 100 µM
- GI50 (UACC-257 melanoma): 13.6 µM
- TGI (UACC-257 melanoma): > 100 µM
- GI50 (HCT-15 colon): 11.4 µM
- TGI (HCT-15 colon): > 100 µM
- GI50 (DU-145 prostate): 25.2 µM
- TGI (DU-145 prostate): > 100 µM
- GI50 (BT-549 breast): 3.31 µM
- TGI (BT-549 breast): 42.8 µM
- GI50 (SF-268 CNS): 4.4 µM
- TGI (SF-268 CNS): 67.9 µM
- GI50 (OVCAR-3 ovarian): 2.74 µM
- TGI (OVCAR-3 ovarian): 32.1 µM
- GI50 (MDA-MB-231 breast): 17.6 µM
- TGI (MDA-MB-231 breast): > 100 µM
- GI50 (T-47D breast): 4.32 µM
- TGI (T-47D breast): 60.3 µM
- GI50 (CCRF-CEM leukemia): 7.05 µM
- TGI (CCRF-CEM leukemia): 30.6 µM
- GI50 (HCT-116 colon): 16.8 µM
- TGI (HCT-116 colon): > 100 µM
- GI50 (HS 578T breast): 1.6 µM
- TGI (HS 578T breast): 12.8 µM
- GI50 (M14 melanoma): 18.2 µM
- TGI (M14 melanoma): > 100 µM
- GI50 (SNB-75 CNS): 1.34 µM
- TGI (SNB-75 CNS): 11.7 µM
- GI50 (MOLT-4 leukemia): 2.3 µM
- TGI (MOLT-4 leukemia): 13.6 µM
- GI50 (HT29 colon): 7.88 µM
- TGI (HT29 colon): > 100 µM
- GI50 (OVCAR-8 ovarian): 14.7 µM
- TGI (OVCAR-8 ovarian): > 100 µM
- GI50 (UO-31 renal): 3.33 µM
- TGI (UO-31 renal): > 100 µM
- GI50 (HL-60(TB) leukemia): 0.975 µM
- TGI (HL-60(TB) leukemia): 2.74 µM
- GI50 (SW-620 colon): 28.8 µM
- TGI (SW-620 colon): > 100 µM
- GI50 (CAKI-1 renal): 7.96 µM
- TGI (CAKI-1 renal): > 100 µM
- GI50 (OVCAR-4 ovarian): 2.36 µM
- TGI (OVCAR-4 ovarian): > 100 µM
- GI50 (SK-MEL-28 melanoma): 9.73 µM
- TGI (SK-MEL-28 melanoma): > 100 µM
- GI50 (NCI-H23 lung): 22.1 µM
- TGI (NCI-H23 lung): > 100 µM
- GI50 (PC-3 prostate): 1.44 µM
- TGI (PC-3 prostate): > 100 µM
- GI50 (EKVX NSCLC): 5.6 µM
- TGI (EKVX NSCLC): > 100 µM
- GI50 (NCI-H522 lung): 20.3 µM
- TGI (NCI-H522 lung): > 100 µM
- GI50 (MDA-MB-435 melanoma): 24.7 µM
- TGI (MDA-MB-435 melanoma): > 100 µM
- GI50 (SF-539 CNS): 22.5 µM
- TGI (SF-539 CNS): > 100 µM
- GI50 (A498 renal): 4.52 µM
- TGI (A498 renal): 54.3 µM
- GI50 (MDA-MB-468 breast): 1.46 µM
- TGI (MDA-MB-468 breast): 7.84 µM
- GI50 (MCF7 breast): 1.34 µM
- TGI (MCF7 breast): > 100 µM
- GI50 (HOP-92 NSCLC): 6.12 µM
- TGI (HOP-92 NSCLC): > 100 µM
- GI50 (COLO 205 colon): 26.7 µM
- TGI (COLO 205 colon): > 100 µM
- GI50 (NCI/ADR-RES ovarian): 25 µM
- TGI (NCI/ADR-RES ovarian): > 100 µM
- GI50 (NCI-H226 lung): 12.5 µM
- TGI (NCI-H226 lung): > 100 µM
- GI50 (TK-10 renal): 12 µM
- TGI (TK-10 renal): > 100 µM
- GI50 (K-562 leukemia): 71.9 µM
- TGI (K-562 leukemia): > 100 µM
- GI50 (HOP-62 NSCLC): 10.9 µM
- TGI (HOP-62 NSCLC): > 100 µM
- GI50 (ACHN renal): 7.99 µM
- TGI (ACHN renal): > 100 µM
- GI50 (IGROV1 ovarian): 1.18 µM
- TGI (IGROV1 ovarian): 11.3 µM
- GI50 (SR leukemia): 1.28 µM
- TGI (SR leukemia): 4.28 µM
- GI50 (LOX IMVI melanoma): 21.1 µM
- TGI (LOX IMVI melanoma): > 100 µM
- GI50 ([…]-0 renal): 26.3 µM
- TGI (786-0 renal): > 100 µM
- GI50 (MALME-3M melanoma): 3.9 µM
- TGI (MALME-3M melanoma): 42.4 µM
- GI50 (SN12C renal): 11 µM
- TGI (SN12C renal): > 100 µM
- GI50 (OVCAR-5 ovarian): 15.4 µM
- TGI (OVCAR-5 ovarian): > 100 µM
- GI50 (SF-295 CNS): 7.25 µM
- TGI (SF-295 CNS): > 100 µM
